These molecules were tested against hMAT2A (Homo sapiens (Human), UniProt P31153) (assay: Phosphate Sensor Fluorescence Assay (MAT2A enzyme inhibition)). Conditions: L-methionine 500 uM, ATP 500 uM, class symbols.
Assay type: biochemical
In short: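 Recombinant MAT2A preincubated 15 min at room temperature with compound, then reacted 1 h at room temperature with 500 uM L-methionine and 500 uM ATP in Tris pH 7.5 buffer containing PNP/7-MEG.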

Sequence of hMAT2A (P31153 whole entry): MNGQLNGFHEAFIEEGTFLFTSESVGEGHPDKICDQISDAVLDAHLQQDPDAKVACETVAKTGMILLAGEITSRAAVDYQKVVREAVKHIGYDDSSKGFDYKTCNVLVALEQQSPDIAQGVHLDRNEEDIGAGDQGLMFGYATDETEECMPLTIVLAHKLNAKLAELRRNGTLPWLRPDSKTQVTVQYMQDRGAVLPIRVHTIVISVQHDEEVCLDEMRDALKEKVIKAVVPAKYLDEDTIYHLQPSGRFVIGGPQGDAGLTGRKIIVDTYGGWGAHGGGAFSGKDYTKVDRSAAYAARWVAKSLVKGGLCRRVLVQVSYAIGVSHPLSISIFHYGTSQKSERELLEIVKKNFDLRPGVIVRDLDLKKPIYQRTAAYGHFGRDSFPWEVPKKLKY

First: N#CCCNc1nc(=O)n(-c2ccccc2Cl)c2nc(C(F)(F)F)ccc12 [Example 278, 3-((1-(2-chlorophenyl)-2-oxo-7-(trifluoro-methyl)-1,2-dihydropyrido-[2,3-d]pyrimidin-4-yl)amino)-propanenitrile]
Second: CN(C)CCNc1nc(=O)n(-c2ccccc2Cl)c2nc(C(F)(F)F)ccc12 [Example 267, 4-{[2-(dimethylamino)ethyl]amino}-1-(2-chlorophenyl)-7-(trifluoromethyl)-pyrido[2,3-d]pyrimidin-2(1H)-one]
The IC50 of the first is lower: under 200 nM for the first, 1000 to 10000 nM for the second.

First: Cc1ncccc1-n1c(=O)nc(N2CC[C@@H](O)C2)c2ccc(C(F)(F)F)cc21 [Example 283]
Second: O=c1nc(N2CC[C@@H](O)C2)c2ccc(Cl)cc2n1-c1ccc2nccn2c1 [Example 250, 4-((3R)-3-hydroxypyrrolidin-1-yl)-7-chloro-1-(4-hydroimidazo[1,2-a]pyridin-6-yl)-hydroquinazolin-2-one]
The IC50 of the first is lower: under 200 nM for the first, 500 to 1000 nM for the second.

First: C[C@]1(O)C[C@H](Nc2nc(=O)n(-c3ccccc3Cl)c3nc(C(F)(F)F)ccc23)C1 [Example 300, 4-[((trans)-3-hydroxy-3-methylcyclo-butyl)amino]-1-(2-chlorophenyl)-7-(trifluoromethyl)pyrido[2,3-d]pyrimidin-2(1H)-one]
Second: O=c1nc(N[C@H]2C[C@@](O)(C(F)(F)F)C2)c2ccc(C(F)(F)F)nc2n1-c1ccccc1Cl [Example 299]
The IC50 of the first is lower: under 200 nM for the first, 200 to 500 nM for the second.

`O=c1nc(N2CCCC2)c2ccc(C(F)(F)F)nc2n1-c1ccccc1Cl` [Example 176, 1-(2-chlorophenyl)-4-(pyrrolictin-1-yl)-7-(trifluoromethyl)pyrido[2,3-d]pyrimidin-2(1H)-one] and `O=c1nc(N2CC(F)C2)c2ccc(C(F)(F)F)nc2n1-c1ccccc1Cl` [Example 315, 1-(2-chlorophenyl)-4-(3-fluoroazetidin-1-yl)-7-(trifluoromethyl)pyrido[2,3-d]pyrimidin-2(1H)-one] cannot be ordered by IC50: under 200 nM for the first, under 200 nM for the second.

`O=c1nc(NCC(F)(F)F)c2ccc(C(F)(F)F)nc2n1-c1ccccc1` [Example 136, 1-phenyl-4-((2,2,2-trifluoroethyl)amino)-7-(trifluoromethyl)pyrido[2,3-d]-pyrimidin-2(1H)-one] and `O=c1nc(NCC(F)(F)F)c2ccc(C(F)(F)F)cc2n1-c1ccccc1` [Example 118] cannot be ordered by IC50: under 200 nM for the first, under 200 nM for the second.

First: CNc1nc(=O)n(-c2ccccc2Cl)c2cc(C3CC3)cc(OC(F)F)c12 [Example 406, 5-(difluoromethoxy)-1-(2-chlorophenyl)-7-cyclopropyl-4-(methylamino)hydro-quinazolin-2-one]
Second: CNc1nc(=O)n(-c2ccccc2Cl)c2cc(C3CC3)ccc12 [Example 426, 1-(2-chlorophenyl)-7-cyclopropyl-4-(methylamino)quinazolin-2(1H)-one]
The IC50 of the first is higher: 200 to 500 nM for the first, under 200 nM for the second.

`NC1CCN(c2nc(=O)n(-c3ccccc3)c3cc(Cl)ccc23)C1` (stereo not drawn) [Example 201, 4-(3-aminopyrrolidin-1-yl)-7-chloro-1-phenylquinazolin-2(1H)-one] and `CNC(=O)C1CN(c2nc(=O)n(-c3ccccc3)c3cc(Cl)ccc23)C1` [Example 204, 1-(7-chloro-2-oxo-1-phenyl-1,2-dihydroquinazolin-4-yl)-N-methyl-azetidine-3-carboxamide] cannot be ordered by IC50: under 200 nM for the first, under 200 nM for the second.

`O=c1[nH]c(=O)n(-c2cccnc2)c2nc(C(F)(F)F)ccc12` [Example 359, 1-(pyridin-3-yl)-7-(trifluoromethyl)-pyrido[2,3-d]pyrimidine-2,4(1H,3H)-dione] and `Cc1ncccc1-n1c(=O)[nH]c(=O)c2ccc(C(F)(F)F)nc21` [Example 364, 1-(2-methylpyridin-3-yl)-7-(trifluoro-methyl)pyrido[2,3-d]pyrimidine-2,4(1H,3H)-dione] cannot be ordered by IC50: under 200 nM for the first, under 200 nM for the second.

First: CC(=O)Nc1nc(=O)n(-c2ccccc2)c2cc(Cl)ccc12 [Example 203, N-(7-chloro-2-oxo-1-phenyl-1,2-dihydroquinazolin-4-yl)acetamide]
Second: O=c1nc(NCC2COC2)c2ccc(Cl)cc2n1-c1ccccc1 [Example 232, 7-chloro-4-[(oxetan-3-ylmethyl)amino]-1-phenylhydroquinazolin-2-one]
The IC50 of the first is higher: 200 to 500 nM for the first, under 200 nM for the second. The second is the more potent here.

First: CN(C)C(=O)CN(C)c1nc(=O)n(-c2ccccc2)c2cc(Cl)ccc12 [Example 220, 2-((7-chloro-2-oxo-1-phenyl-1,2-dihydroquinazolin-4-yl)(methyl)amino)-N,N-dimethylacetamide]
Second: CN(Cc1ccccc1)c1nc(=O)n(-c2ccccc2)c2cc(Cl)ccc12 [Example 197, 7-chloro-4-[methylbenzylamino]-1-phenylhydroquinazolin-2-one]
The IC50 of the first is higher: 1000 to 10000 nM for the first, under 200 nM for the second.

`CNc1nc(=O)n(-c2cnccc2C)c2nc(C(F)(F)F)ccc12` [Example 376] and `CNc1nc(=O)n(-c2cccnc2C)c2nc(C(F)(F)F)ccc12` [Example 380, 4-(methylamino)-1-(2-methylpyridin-3-yl)-7-(trifluoromethyl)pyrido[2,3-d]-pyrimidin-2(1H)-one] cannot be ordered by IC50: under 200 nM for the first, under 200 nM for the second.

First: CN(C)CCCNc1nc(=O)n(-c2ccccc2Cl)c2nc(C(F)(F)F)ccc12 [Example 266, 4-{[3-(dimethylamino)propyl]amino}-1-(2-ch1orophenyl)-7-(trifluoromethyl)-pyrido[2,3-d]pyrimidin-2(1H)-one]
Second: CC(C)(C)Nc1nc(=O)n(-c2ccccc2Cl)c2nc(C(F)(F)F)ccc12 [Example 259, 4-[(tert-butyl)amino]-1-(2-chloro-phenyl)-7-(trifluoromethyl)pyrido-[2,3-d]pyrimidin-2(1H)-one]
The IC50 of the first is higher: 1000 to 10000 nM for the first, under 200 nM for the second.

`CC(C)Nc1nc(=O)n(-c2ccccc2Cl)c2nc(C(F)(F)F)ccc12` [Example 258, 1-(2-chlorophenyl)-4-[(methylethyl)-amino]-7-(trifluoromethyl)pyrido[2,3-d]-pyrimidin-2(1H)-one] and `C[C@]1(Nc2nc(=O)n(-c3ccccc3Cl)c3nc(C(F)(F)F)ccc23)C[C@@H](O)C1` [Example 269, 1-(2-chlorophenyl)-4-(((1s,3s)-3-hydroxy-1-methylcyclobutyl)amino)-7-(trifluoromethyl)pyrido[2,3-d]pyrimidin-2(1H)-one] cannot be ordered by IC50: under 200 nM for the first, under 200 nM for the second.

Compared with `CNc1nc(=O)n(-c2ncccn2)c2cc(C(F)(F)F)ccc12` [Example 123, 4-(methylamino)-1-pyrimidin-2-yl-7-(trifluoromethyl)hydroquinazolin-2-one], `CNc1nc(=O)n(-c2ccccc2C)c2cc(C(F)(F)F)ccc12` [Example 129, 4-(methylamino)-1-(2-methylphenyl)-7-(trifluoromethyl)hydroquinazolin-2-one] is lower in IC50: 200 to 500 nM for the first, under 200 nM for the second.

`CNc1nc(=O)n(-c2cccc(C3CC3)c2)c2cc(Cl)ccc12` [Example 353, 7-chloro-1-(3-cyclopropylphenyl)-4-(methylamino)hydroquinazolin-2-one] and `CNc1nc(=O)n(-c2ccccc2)c2cc(C(F)F)ccc12` [Example 143, 7-(difluoromethyl)-4-(methylamino)-1-phenylhydroquinazolin-2-one] cannot be ordered by IC50: under 200 nM for the first, under 200 nM for the second.

`N#Cc1cc2c(NCC3CC3)nc(=O)n(-c3ccccc3Cl)c2cc1C1CC1` [Example 409, 1-(2-chlorophenyl)-7-cyclopropyl-4-((cyclopropylmethyl)amino)-2-oxo-1,2-dihydroquinazoline-6-carbonitrile] and `O=c1nc(NCC(F)(F)F)c2ccc(C(F)(F)F)cc2n1-c1ccccc1Cl` [Example 101, 1-(2-chlorophenyl)-4-[(2,2,2-trifluoro-ethyl)amino]-7-(trifluoromethyl)hydro-quinazolin-2-one] cannot be ordered by IC50: under 200 nM for the first, under 200 nM for the second.

`O=c1nc(OC2CC2)c2ccc(C(F)(F)F)nc2n1-c1ccccc1Cl` [Example 422, 1-(2-chlorophenyl)-4-cyclopropoxy-7-(trifluoromethyl)pyrido[2,3-d]pyrimidin-2(1H)-one] and `O=c1nc(N2CC(O)C2)c2ccc(C(F)(F)F)nc2n1-c1ccccc1Cl` [Example 161, 1-(2-chlorophenyl)-4-(3-hydroxy-azetidinyl)-7-(trifluoromethyl)pyrido-[2,3-d]pyrimidin-2(1H)-one] cannot be ordered by IC50: under 200 nM for the first, under 200 nM for the second.

First: O=c1nc(NC2CC3(C2)CS(=O)(=O)C3)c2ccc(C(F)(F)F)nc2n1-c1ccccc1Cl [Example 316, 1-(2-chlorophenyl)-4-((2,2-dioxido-2-thiaspiro[3.3]heptan-6-yl)amino)-7-(trifluoromethyl)pyrido[2,3-d]pyrimidin-2(1H)-one]
Second: O=c1nc(NC2CC3(CCC3)C2)c2ccc(C(F)(F)F)nc2n1-c1ccccc1Cl [Example 245, 1-(2-chlorophenyl)-4-(spiro[3.3]heptan-2-ylamino)-7-(trifluoromethyl)pyrido-[2,3-d]pyrimidin-2(1H)-one]
The IC50 of the first is higher: 200 to 500 nM for the first, under 200 nM for the second.

`Cn1ccc(CNc2nc(=O)n(-c3ccccc3Cl)c3nc(C(F)(F)F)ccc23)n1` [Example 257, 1-(2-chlorophenyl)-4-{[(1-methyl-pyrazol-3-yl)methyl]amino}-7-(trifluoro-methyl)-pyrido[2,3-d]pyrimidin-2(1H)-one] and `O=c1nc(NCC2CCO2)c2ccc(C(F)(F)F)nc2n1-c1ccccc1Cl` (stereo not drawn) [Example 271, 1-(2-chlorophenyl)-4-[(oxetan-2-ylmethyl)amino]-7-(trifluoromethyl)-pyrido[2,3-d]pyrimidin-2(1H)-one] cannot be ordered by IC50: under 200 nM for the first, under 200 nM for the second.

`CNc1nc(=O)n(-c2ccccc2)c2cc(Cl)cc(OCC(F)(F)F)c12` [Example 350, 7-chloro-4-(methylamino)-1-phenyl-5-(2,2,2-trifluoroethoxy)hydroquinazolin-2-one] and `C[C@@H]1CCCN1c1nc(=O)n(-c2ccccc2)c2nc(C(F)(F)F)ccc12` [Example 344, 4-((2R)-2-methylpyrrolidin-1-yl)-1-phenyl-7-(trifluoromethyl)pyrido[2,3-d]-pyrimidin-2(1H)-one] cannot be ordered by IC50: under 200 nM for the first, under 200 nM for the second.

Same assay, conditions: L-methionine 500 uM, ATP 500 uM, numeric bound

`Nc1nc(=O)n(-c2ccccc2)c2cc(Cl)cc(-n3nccn3)c12` [Example 112, 4-amino-7-chloro-1-phenyl-5-(1,2,3-triazol-2-yl)hydroquinazolin-2-one] and `O=c1[nH]c(=O)n(-c2ccccc2)c2c(Cl)c(C(F)(F)F)ccc12` [Example 361] cannot be ordered by IC50: over 10000 nM for the first, over 10000 nM for the second.
